Measured values reported in PMC4605401 (Journal of pharmaceutical and biomedical analysis, 2009).
Each block holds one molecule with its values, some of them ahead of it.

Key:
[1] = target: T1, histamine 1 receptor (H1R) (Homo sapiens, UniProt P35367); experiment: Frontal affinity chromatography, competitive displacement on CMAC; type: binding; conditions: CMAC(1321N1P2Y1); marker 50 pM [3H]-mepyramine; 10 μM 2-MeSADP in mobile phase
P2Y1 receptor [2] = experiment: Frontal affinity chromatography on CMAC; type: binding, human
[3] = target: T1, histamine 1 receptor (H1R); type: binding; conditions: histamine subtype selectivity; data not shown
[4] = target: T1, histamine 1 receptor (H1R); conditions: cellular membrane binding studies; data not shown
P2Y1 receptor [5] = target: P2Y1 receptor (Homo sapiens, UniProt P47900); experiment: Frontal affinity chromatography, competitive displacement on CMAC; type: binding; conditions: CMAC(1321N1P2Y1); marker 1 nM [3H]-2-MeSADP; 1 μM mepyramine in mobile phase
P2Y1 receptor (Homo sapiens, UniProt P47900), sequence (P47900 whole entry): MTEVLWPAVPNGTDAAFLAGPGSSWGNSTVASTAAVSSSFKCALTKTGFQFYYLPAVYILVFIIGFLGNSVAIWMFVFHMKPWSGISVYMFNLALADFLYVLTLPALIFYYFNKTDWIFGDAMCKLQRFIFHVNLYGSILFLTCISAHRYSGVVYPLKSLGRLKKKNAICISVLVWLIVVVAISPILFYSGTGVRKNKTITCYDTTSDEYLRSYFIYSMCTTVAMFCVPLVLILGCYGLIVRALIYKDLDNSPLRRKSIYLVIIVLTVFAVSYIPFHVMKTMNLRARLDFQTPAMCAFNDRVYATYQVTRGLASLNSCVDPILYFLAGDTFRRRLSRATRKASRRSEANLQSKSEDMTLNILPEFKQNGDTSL

T1 sequence (P35367 whole entry): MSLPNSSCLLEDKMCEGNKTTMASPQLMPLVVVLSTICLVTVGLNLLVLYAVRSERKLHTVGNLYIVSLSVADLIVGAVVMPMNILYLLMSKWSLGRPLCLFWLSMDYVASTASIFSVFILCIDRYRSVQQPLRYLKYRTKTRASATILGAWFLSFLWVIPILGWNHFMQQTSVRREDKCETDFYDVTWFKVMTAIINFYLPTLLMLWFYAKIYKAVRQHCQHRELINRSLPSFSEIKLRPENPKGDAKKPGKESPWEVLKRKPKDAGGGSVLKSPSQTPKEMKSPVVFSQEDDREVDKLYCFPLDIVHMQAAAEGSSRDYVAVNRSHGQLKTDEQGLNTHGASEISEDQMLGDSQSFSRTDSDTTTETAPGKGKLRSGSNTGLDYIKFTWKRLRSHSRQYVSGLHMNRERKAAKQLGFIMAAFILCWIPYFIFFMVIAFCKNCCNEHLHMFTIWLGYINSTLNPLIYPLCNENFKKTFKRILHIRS

effect on the breakthrough volume of mepyramine [1]: no effect
Molecule: CSc1nc(N)c2ncn([C@@H]3O[C@H](COP(=O)(O)OP(=O)(O)O)[C@@H](O)[C@H]3O)c2n1 [2-MeSADP]
CMAC(1321N1) Kd (P2Y1 receptor [2]; P2Y1, non-transfected 1321N1 membranes): No binding
specific retention on CMAC(1321N1) column (P2Y1 receptor [2]; [3H]-2-MeSADP added to the mobile phase): no specific retention

Molecule: 4-methylhistamine
specific retention on CMAC(1321N1) column [3]: No specific retention
specific binding to 1321N1 cellular membranes [4]: did not specifically bind

effect on the breakthrough volume of 2-MeSADP (P2Y1 receptor [5]): no effect
Molecule: COc1ccc(CN(CCN(C)C)c2ccccn2)cc1 [Mepyramine, mepyramine]
